Measured values taken from article PMC11995216, “End-to-End Backbone Cyclization Enhances Passive Permeability of bRo5 Oligomeric Depsipeptides with Nonlinear Size Dependence” (ACS Medicinal Chemistry Letters, 2025).
Values joined by “and” are separate entries in the source; they are usually repeats but may differ in a detail not shown here. Equal entries are not always repeated. Where two headings read alike, the source gives them in different places. Non-standard residues stand in square brackets, D forms with d. Residues, ends and D or L forms follow the SMILES beside them. *: point of attachment. Ahp(2) = CCCCC[C@H](N)C(=O)O; dNMeA = CN[C@H](C)C(=O)O; Boc = CC(C)(C)OC(=O)*; OBn = c1ccc(CO*)cc1

How the values were obtained:
in vitro = details: PAMPA, Papp
[1] = calculated using Supplement Equation 1, UV detection
[2] = UV detection
PAMPA [3] = details: UV detection, initial concentration 500 uM
[4] = PAMPA, 500 uM
[5] = initial concentration 500 uM, UV detection
PAMPA [6] = details: UV detection
[7] = Acceptor Concentration (uM) / experiment 1
[8] = Acceptor Concentration (uM) / experiment 2
[9] = Acceptor Concentration (uM) / experiment 3
[10] = Acceptor Concentration (uM) / experiment 4
[11] = Acceptor Concentration (uM) / experiment 5
[12] = Acceptor Concentration (uM) / experiment 6
[13] = Acceptor Concentration (uM) / experiment 7
[14] = Acceptor Concentration (uM) / experiment 8
[15] = Acceptor Concentration (uM) / experiment 9
[16] = Acceptor Concentration (uM) / experiment 10
[17] = Well 1 / [donor], Well 1, standard curve
[18] = Well 2 / [donor], Well 2, standard curve
[19] = Well 3 / [donor], Well 3, standard curve
[20] = Well 4 / [donor], Well 4, standard curve
[21] = Well 5 / [donor], Well 5, standard curve
[22] = Papp (x 10^-6 cm/s) / experiment 1
[23] = Papp (x 10^-6 cm/s) / experiment 2
[24] = Papp (x 10^-6 cm/s) / experiment 3
[25] = Papp (x 10^-6 cm/s) / experiment 4
[26] = Papp (x 10^-6 cm/s) / experiment 5
[27] = Papp (x 10^-6 cm/s) / experiment 6
[28] = Papp (x 10^-6 cm/s) / experiment 7
[29] = Papp (x 10^-6 cm/s) / experiment 8
[30] = Papp (x 10^-6 cm/s) / experiment 9
[31] = Papp (x 10^-6 cm/s) / experiment 10

Compound: CCCCC[C@H](OC(=O)[C@@H](C)N(C)C(=O)OC(C)(C)C)C(=O)OCc1ccccc1 [Compound L1.1]
- Papp at 500 uM (in vitro): 4.3 ± 0.6 ×10⁻⁶ cm/s
- %T ([1]; Well 1 / %T, Well 1): 0.56% and 0.55%
- %T ([1]; Well 2 / %T, Well 2): 0.51%
- %T ([1]; Well 3 / %T, Well 3): 0.44% and 0.55%
- %T ([1]; Well 4 / %T, Well 4): 0.52% and 0.62%
- %T ([1]; Well 5 / %T, Well 5): 0.49% and 0.52%
- % recovery ([2]; Well 1 / %R, Well 1): 87% and 98%
- % recovery ([2]; Well 2 / %R, Well 2): 96% and 95%
- % recovery ([2]; Well 3 / %R, Well 3): 97% and 86%
- % recovery ([2]; Well 4 / %R, Well 4): 91% and 84%
- % recovery ([2]; Well 5 / %R, Well 5): 89% and 95%
- Acceptor Concentration (PAMPA [3]; [7]): 97.9 µM
- Acceptor Concentration (PAMPA [3]; [8]): 95.4 µM
- Acceptor Concentration (PAMPA [3]; [9]): 79.7 µM
- Acceptor Concentration (PAMPA [3]; [10]): 94.3 µM
- Acceptor Concentration (PAMPA [3]; [11]): 84.7 µM
- Acceptor Concentration (PAMPA [3]; [12]): 107 µM
- Acceptor Concentration (PAMPA [3]; [13]): 95.8 µM
- Acceptor Concentration (PAMPA [3]; [14]): 92.9 µM
- Acceptor Concentration (PAMPA [3]; [15]): 107 µM
- Acceptor Concentration (PAMPA [3]; [16]): 97.4 µM
- Acceptor Concentration, Ave [4]: 95.2 µM
- Δ % diffusion [4]: ↑22%
- donor concentration after incubation [5, 17]: 339 µM and 383 µM
- donor concentration after incubation [5, 18]: 384 µM and 381 µM
- donor concentration after incubation [5, 19]: 406 µM and 335 µM
- donor concentration after incubation [5, 20]: 363 µM and 315 µM
- donor concentration after incubation [5, 21]: 360 µM and 379 µM
- Papp (PAMPA [6]; [22]): 4.67 ×10⁻⁶ cm/s
- Papp (PAMPA [6]; [23]): 4.06 ×10⁻⁶ cm/s
- Papp (PAMPA [6]; [24]): 3.27 ×10⁻⁶ cm/s
- Papp (PAMPA [6]; [25]): 4.23 ×10⁻⁶ cm/s
- Papp (PAMPA [6]; [26]): 3.87 ×10⁻⁶ cm/s
- Papp (PAMPA [6]; [27]): 4.51 ×10⁻⁶ cm/s
- Papp (PAMPA [6]; [28]): 4.1 ×10⁻⁶ cm/s
- Papp (PAMPA [6]; [29]): 4.51 ×10⁻⁶ cm/s
- Papp (PAMPA [6]; [30]): 5.45 ×10⁻⁶ cm/s
- Papp (PAMPA [6]; [31]): 4.19 ×10⁻⁶ cm/s

Compound: CCCCC[C@H](OC(=O)[C@@H](C)N(C)C(=O)[C@H](CCCCC)OC(=O)[C@@H](C)N(C)C(=O)[C@H](CCCCC)OC(=O)[C@@H](C)N(C)C(=O)OC(C)(C)C)C(=O)OCc1ccccc1 [Compound L1.3]
- Papp at 500 uM (in vitro): 3.54 ± 0.2 ×10⁻⁶ cm/s
- %T ([1]; Well 1 / %T, Well 1): 0.44% and 0.49%
- %T ([1]; Well 2 / %T, Well 2): 0.47% and 0.46%
- %T ([1]; Well 3 / %T, Well 3): 0.46%
- %T ([1]; Well 4 / %T, Well 4): 0.49% and 0.46%
- %T ([1]; Well 5 / %T, Well 5): 0.47% and 0.43%
- % recovery ([2]; Well 1 / %R, Well 1): 86% and 89%
- % recovery ([2]; Well 2 / %R, Well 2): 93% and 92%
- % recovery ([2]; Well 3 / %R, Well 3): 91% and 85%
- % recovery ([2]; Well 4 / %R, Well 4): 86% and 84%
- % recovery ([2]; Well 5 / %R, Well 5): 85% and 86%
- Acceptor Concentration (PAMPA [3]; [7]): 84.1 µM
- Acceptor Concentration (PAMPA [3]; [8]): 80.7 µM
- Acceptor Concentration (PAMPA [3]; [9]): 74.5 µM
- Acceptor Concentration (PAMPA [3]; [10]): 72.5 µM
- Acceptor Concentration (PAMPA [3]; [11]): 68.1 µM
- Acceptor Concentration (PAMPA [3]; [12]): 71.8 µM
- Acceptor Concentration (PAMPA [3]; [13]): 84 µM
- Acceptor Concentration (PAMPA [3]; [14]): 79 µM
- Acceptor Concentration (PAMPA [3]; [15]): 81.4 µM
- Acceptor Concentration (PAMPA [3]; [16]): 75.6 µM
- LogPapp [4]: -5.45 ± 0.02
- Δ % diffusion [4]: ↑3%
- donor concentration after incubation [5, 17]: 358 µM
- donor concentration after incubation [5, 18]: 382 µM and 379 µM
- donor concentration after incubation [5, 19]: 378 µM and 351 µM
- donor concentration after incubation [5, 20]: 350 µM and 346 µM
- donor concentration after incubation [5, 21]: 351 µM and 360 µM
- Papp (PAMPA [6]; [22]): 3.86 ×10⁻⁶ cm/s
- Papp (PAMPA [6]; [23]): 3.52 ×10⁻⁶ cm/s
- Papp (PAMPA [6]; [24]): 3.52 ×10⁻⁶ cm/s
- Papp (PAMPA [6]; [25]): 3.49 ×10⁻⁶ cm/s
- Papp (PAMPA [6]; [26]): 3.18 ×10⁻⁶ cm/s
- Papp (PAMPA [6]; [27]): 3.34 ×10⁻⁶ cm/s
- Papp (PAMPA [6]; [28]): 3.62 ×10⁻⁶ cm/s
- Papp (PAMPA [6]; [29]): 3.46 ×10⁻⁶ cm/s
- Papp (PAMPA [6]; [30]): 3.83 ×10⁻⁶ cm/s
- Papp (PAMPA [6]; [31]): 3.57 ×10⁻⁶ cm/s

Compound: CCCCC[C@H](NC(=O)[C@@H](C)N(C)C(=O)[C@H](CCCCC)NC(=O)[C@@H](C)N(C)C(=O)[C@H](CCCCC)NC(=O)[C@@H](C)N(C)C(=O)[C@H](CCCCC)NC(=O)[C@@H](C)N(C)C(=O)OC(C)(C)C)C(=O)OCc1ccccc1 [Compound L2.5] (Boc-[dNMeA][Ahp(2)][dNMeA][Ahp(2)][dNMeA][Ahp(2)][dNMeA][Ahp(2)]-OBn)
- %T ([1]; Well 1 / %T, Well 1): 0.61% and 0.63%
- %T ([1]; Well 2 / %T, Well 2): 0.61% and 0.6%
- %T ([1]; Well 3 / %T, Well 3): 0.58% and 0.63%
- %T ([1]; Well 4 / %T, Well 4): 0.6% and 0.62%
- %T ([1]; Well 5 / %T, Well 5): 0.61% and 0.64%
- % recovery ([2]; Well 1 / %R, Well 1): 84% and 83%
- % recovery ([2]; Well 2 / %R, Well 2): 89%
- % recovery ([2]; Well 3 / %R, Well 3): 90% and 91%
- % recovery ([2]; Well 4 / %R, Well 4): 90%
- % recovery ([2]; Well 5 / %R, Well 5): 82% and 92%
- Acceptor Concentration (PAMPA [3]; Acceptor Concentration (uM) / [row 1]): 55.5 µM
- Acceptor Concentration (PAMPA [3]; Acceptor Concentration (uM) / [row 2]): 54.4 µM
- Acceptor Concentration (PAMPA [3]; Acceptor Concentration (uM) / [row 3]): 52.1 µM
- Acceptor Concentration (PAMPA [3]; Acceptor Concentration (uM) / [row 4]): 59 µM
- Acceptor Concentration (PAMPA [3]; Acceptor Concentration (uM) / [row 5]): 58.4 µM
- Acceptor Concentration (PAMPA [3]; Acceptor Concentration (uM) / [row 6]): 67.8 µM
- Acceptor Concentration (PAMPA [3]; Acceptor Concentration (uM) / [row 7]): 57.4 µM
- Acceptor Concentration (PAMPA [3]; Acceptor Concentration (uM) / [row 8]): 59.8 µM
- Acceptor Concentration (PAMPA [3]; Acceptor Concentration (uM) / [row 9]): 61.8 µM
- Acceptor Concentration (PAMPA [3]; Acceptor Concentration (uM) / [row 10]): 56.8 µM
- Acceptor Concentration, Ave [4]: 58.3 µM
- Δ % diffusion [4]: ↑6%
- donor concentration after incubation ([5]; Well 1 / [donor], Well 1): 362 µM and 345 µM
- donor concentration after incubation ([5]; Well 2 / [donor], Well 2): 391 µM and 386 µM
- donor concentration after incubation ([5]; Well 3 / [donor], Well 3): 400 µM and 397 µM
- donor concentration after incubation ([5]; Well 4 / [donor], Well 4): 391 µM and 376 µM
- donor concentration after incubation ([5]; Well 5 / [donor], Well 5): 351 µM and 405 µM
- Papp (PAMPA [6]; Papp (x 10^-6 cm/s) / [row 1]): 2.47 ×10⁻⁶ cm/s
- Papp (PAMPA [6]; Papp (x 10^-6 cm/s) / [row 2]): 2.25 ×10⁻⁶ cm/s
- Papp (PAMPA [6]; Papp (x 10^-6 cm/s) / [row 3]): 2.11 ×10⁻⁶ cm/s
- Papp (PAMPA [6]; Papp (x 10^-6 cm/s) / [row 4]): 2.43 ×10⁻⁶ cm/s
- Papp (PAMPA [6]; Papp (x 10^-6 cm/s) / [row 5]): 2.68 ×10⁻⁶ cm/s
- Papp (PAMPA [6]; Papp (x 10^-6 cm/s) / [row 6]): 3.13 ×10⁻⁶ cm/s
- Papp (PAMPA [6]; Papp (x 10^-6 cm/s) / [row 7]): 2.4 ×10⁻⁶ cm/s
- Papp (PAMPA [6]; Papp (x 10^-6 cm/s) / [row 8]): 2.43 ×10⁻⁶ cm/s
- Papp (PAMPA [6]; Papp (x 10^-6 cm/s) / [row 9]): 2.64 ×10⁻⁶ cm/s
- Papp (PAMPA [6]; Papp (x 10^-6 cm/s) / [row 10]): 2.27 ×10⁻⁶ cm/s
